Each structure is given as a SMILES string. Read-outs that look alike come from different tables or passages of the source. Some results are limits rather than exact numbers.

The target in assay [1] is T1, human cannabinoid receptor type 1 (Homo sapiens, UniProt P21554).
T1 construct: purchased Perkin Elmer RBHCB1M; host or cells: HEK 293 EBNA cells
As to the kind of experiment: Human CB1 Radioligand Binding Assay (basis of selectivity, CB2 vs. CB1). Particulars: CB1: HEK 293 EBNA cells expressing human CB1; CB2: CHO CB2 membranes. The protocol:
2. Human CB1 Radioligand Binding Assay
The incubation buffer was composed of 50 mM Tris-HCl pH 7.4, 2.5 mM EDTA, 5 mM MgCl2, 5.0 mg/ml fatty acid free BSA and the wash buffer was composed of 50 mM Tris-HCl pH 7.4, 2.5 mM EDTA, 5 mM MgCl2, 0.5 mg/ml fatty acid free BSA.

Assay [2] has as its target T2, human cannabinoid receptor type 2 (Homo sapiens, UniProt P34972).
T2 construct: expressed in transfected cells; membrane preparation
Nature of the assay: Human CB2 Radioligand Binding Assay. The note with it: membranes from stably transfected CHO CB2 cells. In outline: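 Filtration competition binding on membranes from CHO cells stably expressing human CB2, with [3H]CP-55,940 at its lot-specific Kd, in 50 mM Tris-HCl pH 7.4, EGTA, MgCl2, 5 mg/ml BSA, 1% DMSO; 90 min at 30° C. Compounds at 10 uM single point or dose-response; bound radioactivity by scintillation, 100 nM CP-55,940 as 100% efficacy.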

The mark [3] stands for this setting: competition with [3H] CP-55,940, read-out: CB2 Ligand Binding Asssay EC50.
The mark [4] stands for this setting: CB2 Ligand Binding Asssay EC50, competition with [3H] CP-55,940.

T1 sequence (P21554 whole entry): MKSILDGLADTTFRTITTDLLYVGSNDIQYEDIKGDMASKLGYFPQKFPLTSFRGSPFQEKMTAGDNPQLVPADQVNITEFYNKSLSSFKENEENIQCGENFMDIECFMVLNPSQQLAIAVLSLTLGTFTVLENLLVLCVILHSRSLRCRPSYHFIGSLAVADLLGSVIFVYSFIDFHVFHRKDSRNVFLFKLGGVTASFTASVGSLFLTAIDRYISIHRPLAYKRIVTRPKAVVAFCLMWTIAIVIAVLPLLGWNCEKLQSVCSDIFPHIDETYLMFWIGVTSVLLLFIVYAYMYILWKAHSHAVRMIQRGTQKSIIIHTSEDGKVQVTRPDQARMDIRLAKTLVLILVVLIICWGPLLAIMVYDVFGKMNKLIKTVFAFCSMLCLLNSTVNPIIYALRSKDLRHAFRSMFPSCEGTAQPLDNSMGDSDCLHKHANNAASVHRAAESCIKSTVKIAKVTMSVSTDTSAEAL
T2 sequence (P34972 whole entry): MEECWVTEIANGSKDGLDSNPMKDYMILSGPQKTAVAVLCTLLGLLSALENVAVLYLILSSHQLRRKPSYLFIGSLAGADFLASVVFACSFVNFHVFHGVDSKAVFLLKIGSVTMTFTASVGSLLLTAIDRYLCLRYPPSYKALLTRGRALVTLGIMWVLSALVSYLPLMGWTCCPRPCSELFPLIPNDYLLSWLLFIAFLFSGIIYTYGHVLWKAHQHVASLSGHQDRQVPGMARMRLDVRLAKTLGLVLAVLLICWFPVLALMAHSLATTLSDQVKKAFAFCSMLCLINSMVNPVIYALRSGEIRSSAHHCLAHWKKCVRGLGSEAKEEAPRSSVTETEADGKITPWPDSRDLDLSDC

By EC50 is commonly meant the concentration that produces a half-maximal response. On to `CC(=O)N1CCN(c2nc(-c3ccc(Cl)cc3Cl)nc3ccccc23)CC1` [Example 202, 1-(4-(2-(2,4-Dichlorophenyl)quinazolin-4-yl)piperazin-1-yl)ethanone], for which the “Selectivity, CB2 vs. CB1” value in assay [1] is on record as “− (− indicates ≦ 10−fold)”. Besides, the EC50 in assay [2] (setting [3]) was less than 1000 nM.
For `FC(F)(F)Oc1ccc2nc(-c3ccccc3Cl)nc(N3CCCCC3)c2c1` [Example 181, 2-(2-Chlorophenyl)-4-(piperidin-1-yl)-6-(trifluoromethoxy) quinazoline], in that order: “− (− indicates ≦ 10−fold)” and greater than 1000 nM.
For `CC(C)(C)c1ccc2nc(-c3ccccc3Cl)nc(N3CCSCC3)c2c1` [Example 169, 4-(6-tert-Butyl-2-(2-chlorophenyl)quinazolin-4-yl)thiomorpholine], in that order: “+ (+ indicates > 10−fold)” and less than 1000 nM.
In the same order, the values of `CCOC(=O)N1CCN(c2nc(-c3ccccc3F)nc3ccc(Cl)cc23)CC1` [Example 272, Ethyl 4-(6-chloro-2-(2-fluorophenyl)quinazolin-4-yl)piperazine-1-carboxylate] are “− (− indicates ≦ 10−fold)” and greater than 1000 nM.
For the molecule `COc1ccc(CNC(=O)c2ccc3c(N4CCN(C(C)=O)CC4)nc(-c4ccccc4Cl)nc3c2)cc1` [Example 325, 4-(4-Acetylpiperazin-1-yl)-2-(2-chlorophenyl)-N-(4-methoxybenzyl)quinazoline-7-carboxamide], the “Selectivity, CB2 vs. CB1” value in assay [1] is recorded as “− (− indicates ≦ 10−fold)”. In addition, the EC50 in assay [2] (setting [3]) is greater than 1000 nM.
In the same order, the values of `Cn1ccnc1N1CCN(c2nc(-c3ccccc3Cl)nc3ccccc23)CC1` [Example 257, 2-(2-Chlorophenyl)-4-(4-(1-methyl-1H-imidazol-2-yl)piperazin-1-yl)quinazoline] are “− (− indicates ≦ 10−fold)” and greater than 1000 nM.
For `CC(C)c1nc(N2CCCC2)c2ccccc2n1` [Example 145, 2-Isopropyl-4-pyrrolidin-1-ylquinazoline], in that order: “− (− indicates ≦ 10−fold)” and greater than 1000 nM.
For `Cc1ccccc1-c1nc(N2CCCC2)c2ccccc2n1` [Example 155, 4-Pyrrolidin-1-yl-2-o-tolylquinazoline], in that order: “− (− indicates ≦ 10−fold)” and greater than 1000 nM.
For `c1ccc2c(N3CCOCC3)nc(C3CCCC3)nc2c1` [Example 137, 2-Cyclopentyl-4-morpholin-4-ylquinazoline], the “Selectivity, CB2 vs. CB1” value in assay [1] is “− (− indicates ≦ 10−fold)”. For the same molecule, in assay [2] (setting [3]), the EC50 is greater than 1000 nM.
For `CC(=O)N1CCN(c2nc(-c3ccccc3Cl)nc3cccc(C)c23)CC1` [Example 254, 1-(4-(2-(2-Chlorophenyl)-5-methylquinazolin-4-yl)piperazin-1-yl)ethanone], in that order: “− (− indicates ≦ 10−fold)” and less than 1000 nM.
In the same order, the values of `CC(=O)N1CCN(c2nc(-c3ccc(F)cc3F)nc3ccccc23)CC1` [Example 24, 1-(4-(2-(2,4-Difluorophenyl)quinazolin-4-yl)piperazin-1-yl)ethanone] are “− (− indicates ≦ 10−fold)” and less than 1000 nM.
For `CCCOC(=O)N1CCN(c2nc(-c3ccccc3Cl)nc3cccc(Cl)c23)CC1` [Example 231, Propyl 4-(5-chloro-2-(2-chlorophenyl)quinazolin-4-yl)piperazine-1-carboxylate], in that order: “− (− indicates ≦ 10−fold)” and greater than 1000 nM.
On to `CN(c1ccc(F)cc1F)c1nc(-c2ccc(C(C)(C)C)cc2)nc2ccccc12` [Example 116, 2-(4-tert-Butylphenyl)-N-(2,4-difluorophenyl)-N-methylquinazolin-4-amine], for which the “Selectivity, CB2 vs. CB1” value in assay [1] is given as “− (− indicates ≦ 10−fold)”. In addition, the EC50 in assay [2] (setting [3]) is greater than 1000 nM.
In the same order, the values of `CCOC(=O)N1CCN(c2nc(-c3ccccc3Cl)nc3cccc(Cl)c23)CC1` [Example 266, Ethyl 4-(5-chloro-2-(2-chlorophenyl)quinazolin-4-yl)piperazine-1-carboxylate] are “+ (+ indicates > 10−fold)” and less than 1000 nM.
For `CC(=O)N1CCN(c2nc(-c3ccccc3Cl)nc3cccc(F)c23)CC1` [Example 246, 1-(4-(2-(2-Chlorophenyl)-5-fluoroquinazolin-4-yl)piperazin-1-yl)ethanone], in that order: “+ (+ indicates > 10−fold)” and less than 1000 nM.
For `CC1(C)C(C(=O)N2CCN(c3nc(-c4ccccc4Cl)nc4ccccc34)CC2)C1(C)C` [Example 100, (4-(2-(2-Chlorophenyl)quinazolin-4-yl)piperazin-1-yl)(2,2,3,3-tetramethylcyclopropyl)methanone], the “Selectivity, CB2 vs. CB1” value in assay [1] is given as “− (− indicates ≦ 10−fold)”. In assay [2] (setting [4]), the EC50 was greater than 1000 nM.
Consider `CC(C)(C)c1ccc(-c2nc(Nc3ccc(F)cc3F)c3ccccc3n2)cc1` [Example 115, 2-(4-tert-Butylphenyl)-N-(2,4-difluorophenyl)quinazolin-4-amine], for which, in assay [1], the “Selectivity, CB2 vs. CB1” value is “− (− indicates ≦ 10−fold)”. Besides, the EC50 in assay [2] (setting [3]) was greater than 1000 nM.
For `CNC(=O)c1sccc1S(=O)(=O)NCc1nc(N2CCCC2)c2ccccc2n1` [Example 8, N-Methyl-3-(N-((4-(pyrrolidin-1-yl)quinazolin-2-yl)methyl)sulfamoyl)thiophene-2-carboxamide], in that order: “+ (+ indicates > 10−fold)” and greater than 1000 nM.
For `FC(F)(F)N1CCN(c2nc(-c3ccccc3Cl)nc3ccccc23)CC1` [Example 106, 2-(2-Chlorophenyl)-4-(4-(trifluoromethyl)piperazin-1-yl)quinazoline], in that order: “+ (+ indicates > 10−fold)” and less than 1000 nM.
Take `COC(=O)c1ccc2c(N3CCN(C(C)=O)CC3)nc(-c3ccccc3Cl)nc2c1` [Example 322, Methyl 4-(4-acetylpiperazin-1-yl)-2-(2-chlorophenyl)quinazoline-7-carboxylate]: the “Selectivity, CB2 vs. CB1” value in assay [1] is listed as “− (− indicates ≦ 10−fold)”. This molecule also had a 50% effective concentration (EC50) in assay [2] (setting [4]) greater than 1000 nM.
On to `CCN(CC)C(=O)c1ccc2nc(-c3ccccc3Cl)nc(N3CCN(C)CC3)c2c1` [Example 311, 2-(2-Chlorophenyl)-N,N-diethyl-4-(4-methylpiperazin-1-yl)quinazoline-6-carboxamide], for which the “Selectivity, CB2 vs. CB1” value in assay [1] is listed as “+ (+ indicates > 10−fold)”. Besides, in assay [2] (setting [3]), the EC50 is less than 1000 nM.
Take `CCS(=O)(=O)N1CCN(c2nc(-c3ccccc3Cl)nc3ccccc23)CC1` [Example 85, 2-(2-Chlorophenyl)-4-(4-(ethylsulfonyl)piperazin-1-yl)quinazoline]: the “Selectivity, CB2 vs. CB1” value in assay [1] is “− (− indicates ≦ 10−fold)”. The EC50 in assay [2] (setting [4]) is greater than 1000 nM.
Take `Cc1ccccc1Cc1nc(N2CCN(C)CC2)c2ccccc2n1` [Example 337, 2-(2-Methylbenzyl)-4-(4-methylpiperazin-1-yl)quinazoline]: the “Selectivity, CB2 vs. CB1” value in assay [1] was “− (− indicates ≦ 10−fold)”. In addition, the EC50 in assay [2] (setting [3]) was less than 1000 nM.
With `CCN1[C@H](C)CN(c2nc(-c3ccccc3Cl)nc3ccccc23)C[C@@H]1C` [Example 80, 2-(2-Chlorophenyl)-4-((3S,5R)-4-ethyl-3,5-dimethylpiperazin-1-yl)quinazoline], the “Selectivity, CB2 vs. CB1” value in assay [1] was “− (− indicates ≦ 10−fold)”. Further, the EC50 in assay [2] (setting [3]) is less than 1000 nM.
For `CC(=O)N1CCN(c2nc(C3CCCCC3)nc3ccc(Cl)cc23)CC1` [Example 185, 1-(4-(6-Chloro-2-cyclohexylquinazolin-4-yl)piperazin-1-yl)ethanone], in that order: “− (− indicates ≦ 10−fold)” and less than 1000 nM.
In the same order, the values of `CC(C)CNc1nc(-c2ccccc2)nc2ccccc12` [Example 51, N-iso-Butyl-2-phenylquinazolin-4-amine] are “− (− indicates ≦ 10−fold)” and greater than 1000 nM.
In the same order, the values of `CCCc1nc(N2CCN(C)CC2)c2ccccc2n1` [Example 41, 4-(4-Methylpiperazin-1-yl)-2-propylquinazoline] are “− (− indicates ≦ 10−fold)” and greater than 1000 nM.
Turning to `COc1ccc2nc(-c3ccc(C(C)(C)C)cc3)nc(N3CCCC3)c2c1` [Example 251, 2-(4-tert-Butylphenyl)-6-methoxy-4-(pyrrolidin-1-yl)quinazoline], in assay [1], the “Selectivity, CB2 vs. CB1” value was “+ (+ indicates > 10−fold)”. Also, the EC50 in assay [2] (setting [3]) was less than 1000 nM.
As to `CCOC(=O)N1CCN(c2nc(Cc3cccc(OC)c3)nc3ccccc23)CC1` [Example 196, Ethyl 4-(2-(3-Methoxybenzyl)quinazolin-4-yl)piperazine-1-carboxylate], the “Selectivity, CB2 vs. CB1” value in assay [1] is on record as “− (− indicates ≦ 10−fold)”. Moreover, in assay [2] (setting [3]), the EC50 is greater than 1000 nM.
For `CC(=O)N1CCN(c2nc(-c3ccccc3Cl)nc3ccc(F)cc23)CC1` [Example 268, 1-(4-(2-(2-Chlorophenyl)-6-fluoroquinazolin-4-yl)piperazin-1-yl)ethanone], in that order: “− (− indicates ≦ 10−fold)” and less than 1000 nM.
For `c1ccc(-c2nc(N3CCCCC3)c3ccccc3n2)cc1` [Example 52, 2-Phenyl-4-(piperidin-1-yl)quinazoline], in that order: “− (− indicates ≦ 10−fold)” and greater than 1000 nM.
